Assay results published in ChEMBL document CHEMBL1933003, “Cytotoxic esterified diterpenoid alkaloid derivatives with increased selectivity against a drug-resistant cancer cell line” (Bioorg Med Chem Lett, 2012).

Legend:
A549 = assay: Cytotoxicity against human A549 cells by sulforhodamine B assay; format: functional, cell-based
DU-145 = assay: Cytotoxicity against human DU145 cells by sulforhodamine B assay; format: functional, cell-based
KB [1] = assay: Cytotoxicity against human KB cells by sulforhodamine B assay; format: functional, cell-based
KB [2] = assay: Cytotoxicity against multi-drug resistant variant vincristine resistant human KB cells expressing P-glycoprotein by sulforhodamine B assay; format: functional, cell-based
KB [3] = assay: Selectivity ratio of EC50 for human KB cells to EC50 for multi-drug resistant variant vincristine resistant human KB cells expressing P-glycoprotein by sulforhodamine B assay; format: functional

SMILES | EC50 (A549) | EC50 (DU-145) | EC50 (KB [1]) | EC50 (KB [2]) | Ratio EC50 (KB [3])
CCN1C[C@]2(C)CC[C@H](OC)[C@@]34C1[C@@]1(OCO[C@@]15C[C@H](OC)[C@H]1C[C@@H]3[C@@H]5[C@H]1OC)[C@@H](OC(=O)c1ccc(SC(F)(F)F)cc1)[C@H]24 (single isomer, unassigned) | > 20 µM | 16.6 µM | > 20 µM | 17.9 µM | 
CCN1C[C@]2(C)CC[C@H](OC)[C@@]34[C@@H]5C[C@H]6[C@H](OC)[C@@H]5[C@@]5(C[C@@H]6OC)OCO[C@@]5([C@@H](OC(=O)/C=C/c5ccc(F)cc5)[C@H]23)[C@@H]14 | > 20 µM | > 20 µM | > 20 µM | > 20 µM | 
CCOc1ccc(C(=O)O[C@H]2[C@@H]3[C@@]4(C)CC[C@H](OC)[C@]35C(N(CC)C4)[C@@]23OCO[C@@]32C[C@H](OC)[C@H]3C[C@@H]5[C@@H]2[C@H]3OC)cc1 (single isomer, unassigned) | 20 µM | 15.6 µM | 14.8 µM | 6.5 µM | 2.28
CCN1C[C@]2(C)CC[C@H](OC)[C@@]34C1[C@@]1(OCO[C@@]15C[C@H](OC)[C@H]1C[C@@H]3[C@@H]5[C@H]1OC)[C@@H](OC(=O)c1ccc(C(=O)OC)cc1)[C@H]24 (single isomer, unassigned) | > 20 µM | > 20 µM | > 20 µM | > 20 µM | 
CCN1C[C@]2(C)CC[C@H](OC)[C@@]34C1[C@@]1(OCO[C@@]15C[C@H](OC)[C@H]1C[C@@H]3[C@@H]5[C@H]1OC)[C@@H](OC(=O)c1ccc(F)cc1)[C@H]24 (single isomer, unassigned) | > 20 µM | 15.6 µM | > 20 µM | 15 µM | 
CCN1C[C@]2(C)CC[C@H](OC)[C@@]34[C@@H]5C[C@H]6[C@H](O)[C@@H]5[C@@]5(C[C@@H]6OC)OCO[C@@]5(C(=O)[C@H]23)[C@@H]14 [YUNNADELPHININE] | > 20 µM | > 20 µM | > 20 µM | > 20 µM | 
CC(=O)O[C@H]1C(=O)[C@@]2(C)[C@H]([C@H](OC(=O)c3ccccc3)[C@]3(O)C[C@H](OC(=O)[C@H](O)[C@@H](NC(=O)c4ccccc4)c4ccccc4)C(C)=C1C3(C)C)[C@]1(OC(C)=O)CO[C@@H]1C[C@@H]2O [PACLITAXEL] | 0.0064 µM | 0.0059 µM | 0.006 µM | 0.76 µM | 
CCN1C[C@]2(C)CC[C@H](OC)[C@@]34C1[C@@]1(OCO[C@@]15C[C@H](OC)[C@H]1C[C@@H]3[C@@H]5[C@H]1OC)[C@@H](OC(=O)c1ccc(-c3ccccc3)cc1)[C@H]24 (single isomer, unassigned) | > 20 µM | 17.1 µM | > 20 µM | 17.4 µM | 
CCN1C[C@]2(C)CC[C@H](OC)[C@@]34[C@@H]5C[C@H]6[C@H](OC)[C@@H]5[C@@]5(C[C@@H]6OC)OCO[C@@]5([C@@H](OC(=O)c5cccc(C(F)(F)F)c5)[C@H]23)[C@@H]14 | > 20 µM | 12.6 µM | 14.9 µM | 11.9 µM | 1.25
CCN1C[C@]2(C)CC[C@H](OC)[C@@]34[C@@H]5C[C@H]6[C@H](OC)[C@@H]5[C@@]5(C[C@@H]6OC)OCO[C@@]5([C@@H](OC(=O)/C=C/c5cccc(C(F)(F)F)c5)[C@H]23)[C@@H]14 | 10.2 µM | 15.1 µM | > 20 µM | 9.1 µM | >2.31
CCN1C[C@]2(C)CC[C@H](OC)[C@@]34C1[C@@]1(OCO[C@@]15C[C@H](OC)[C@H]1C[C@@H]3[C@@H]5[C@H]1OC)[C@@H](OC(=O)c1ccc([N+](=O)[O-])cc1)[C@H]24 (single isomer, unassigned) | > 20 µM | 17.2 µM | > 20 µM | 17.7 µM | 
CCN1C[C@]2(C)CC[C@H](OC)[C@@]34C1[C@@]1(OCO[C@@]15C[C@H](OC)[C@H]1C[C@@H]3[C@@H]5[C@H]1OC)[C@@H](OC(=O)c1cc(OC)c(OC)c(OC)c1)[C@H]24 (single isomer, unassigned) | > 20 µM | > 20 µM | > 20 µM | > 20 µM | 
CCN1C[C@]2(C)CC[C@H](OC)[C@@]34[C@@H]5C[C@H]6[C@H](OC)[C@@H]5[C@](O)(C[C@@H]6OC)[C@](O)([C@@H](OC(=O)c5cccc(C(F)(F)F)c5)[C@H]23)[C@@H]14 | > 20 µM | > 20 µM | > 20 µM | > 20 µM | 
CCN1C[C@]2(C)CC[C@H](OC)[C@@]34C1[C@@]1(OCO[C@@]15C[C@H](OC)[C@H]1C[C@@H]3[C@@H]5[C@H]1OC)[C@@H](OC(=O)c1ccc(OC(F)(F)F)cc1)[C@H]24 (single isomer, unassigned) | 18.7 µM | 20.3 µM | 20.1 µM | 18.9 µM | 
CCN1C[C@]2(C)CC[C@H](OC)[C@@]34C1[C@@]1(OCO[C@@]15C[C@H](OC)[C@H]1C[C@@H]3[C@@H]5[C@H]1O)[C@@H](O)[C@H]24 [DELPHELINE] | > 20 µM | > 20 µM | > 20 µM | > 20 µM | 
CCN1C[C@]2(C)CC[C@H](OC)[C@@]34[C@@H]5C[C@H]6[C@H](OC)[C@@H]5[C@](O)(C[C@@H]6OC)[C@](O)([C@@H](O)[C@H]23)[C@@H]14 | > 20 µM | > 20 µM | > 20 µM | > 20 µM | 
CCN1C[C@]2(C)CC[C@H](OC)[C@@]34C1[C@@]1(OCO[C@@]15C[C@H](OC)[C@H]1C[C@@H]3[C@@H]5[C@H]1OC)[C@@H](OC(=O)c1cc(F)c(F)c(F)c1)[C@H]24 (single isomer, unassigned) | 19.9 µM | 16.9 µM | 14.6 µM | 6.8 µM | 2.15
CCN1C[C@]2(C)CC[C@H](OC)[C@@]34[C@@H]5C[C@H]6[C@H](OC)[C@@H]5[C@@]5(C[C@@H]6OC)OCO[C@@]5([C@@H](OC(=O)c5ccc(F)c(C)c5)[C@H]23)[C@@H]14 | > 20 µM | 19.8 µM | 12.1 µM | 4.71 µM | 2.57
CCN1C[C@]2(C)CC[C@H](OC)[C@@]34C1[C@@]1(OCO[C@@]15C[C@H](OC)[C@H]1C[C@@H]3[C@@H]5[C@H]1OC)[C@@H](OC(=O)c1ccc(OC)cc1)[C@H]24 (single isomer, unassigned) | > 20 µM | > 20 µM | > 20 µM | > 20 µM | 
CCN1C[C@]2(C)CC[C@H](OC)[C@@]34[C@@H]5C[C@H]6[C@H](OC)[C@@H]5[C@@]5(C[C@@H]6OC)OCO[C@@]5([C@@H](OC(=O)c5ccc(C(F)(F)F)c(F)c5)[C@H]23)[C@@H]14 | 16.5 µM | 11.3 µM | 5.44 µM | 4.4 µM | 1.24
CCN1C[C@]2(C)CC[C@H](OC)[C@@]34[C@@H]5C[C@H]6[C@H](OC)[C@@H]5[C@@]5(C[C@@H]6OC)OCO[C@@]5([C@@H](OC(=O)c5ccc(C(F)(F)F)nc5)[C@H]23)[C@@H]14 | > 20 µM | > 20 µM | > 20 µM | 18.7 µM | 
CCN1C(=O)[C@]2(C)CC[C@H](OC)[C@@]34[C@@H]5C[C@H]6[C@H](OC)[C@@H]5[C@@]5(C[C@@H]6OC)OCO[C@@]5([C@@H](O)[C@@H]32)[C@@H]14 | > 20 µM | > 20 µM | > 20 µM | > 20 µM | 
CCN1C[C@]2(C)CC[C@H](OC)[C@@]34C1[C@@]1(OCO[C@@]15C[C@H](OC)[C@H]1C[C@@H]3[C@@H]5[C@H]1OC)[C@@H](OC(=O)c1cc([N+](=O)[O-])cc([N+](=O)[O-])c1)[C@H]24 (single isomer, unassigned) | > 20 µM | > 20 µM | 19.1 µM | 20.3 µM | 
CCN1C[C@]2(C)CC[C@H](OC)[C@@]34[C@@H]5C[C@H]6[C@H](OC)[C@@H]5[C@@]5(C[C@@H]6OC)OCO[C@@]5([C@@H](OC(=O)c5ccc(OCc6ccccc6)cc5)[C@H]23)[C@@H]14 | 14.1 µM | 13.2 µM | 6.76 µM | 4.22 µM | 1.6
CCN1C[C@]2(C)CC[C@H](OC)[C@@]34[C@@H]5C[C@H]6[C@H](OC)[C@@H]5[C@@]5(C[C@@H]6OC)OCO[C@@]5(C(=O)[C@H]23)[C@@H]14 [PACININE] | > 20 µM | > 20 µM | > 20 µM | > 20 µM | 
CCN1C[C@]2(C)CC[C@H](OC)[C@@]34[C@@H]5C[C@H]6[C@H](OC)[C@@H]5[C@@]5(C[C@@H]6OC)OCO[C@@]5([C@@H](OC(=O)c5ccc(Cl)cc5)[C@H]23)[C@@H]14 | 14.8 µM | 7.4 µM | 8.85 µM | 8.27 µM | 1.07
